Here are results for seven compounds from patent publication US5498618A, “4-amino-N-(4-methyl-4-piperidinyl)-2-methoxybenzamides for treating smooth muscle contraction disorders” (Janssen Pharmaceutica N.V., priority 1993, dated 1996).

One assay concerns the target T1, 5HT2 serotonin receptor (Rattus norvegicus, UniProt P14842).
T1 construct: Cell membrane fractions, prepared from tissue homogenates or cells; from tissue
Put plainly: 5HT2 receptor binding, [3H]ketanserin displacement. As to conditions: read-out: IC50 (inhibition of [3H]-ligand binding) (converted). As for the experimental part: (§1) Cell membrane fractions, prepared from tissue homogenates or cells, were incubated with a radioactive [^3 H]-labelled substance (described hereinafter as the [^3 H]-ligand) known to bind specifically to a particular receptor, thus labeling this receptor. The [^3 H]-ligand used for each receptor site is mentioned in Table 1, as are the references wherein the experimental conditions of these tests are described.
(§2) After the incubation, the labelled membranes were harvested on glass fibre filters and rinsed twice with 5 ml of a cold buffer solution to remove non-bound [^3 H]-ligands. Subsequently the glass fibre filters, with the harvested membranes, were placed in plastic mini-vials and 2.0 ml of Ultima Gold™ scintillation cocktail was added. Vials were vigorously shaken and kept at 4° C. for 24 h. Thereafter radioactivity was counted in a liquid scintillation spectrometer. Said radioactivity is proportional to the membrane labelling by the [^3 H]-ligand.
(§3) Specific membrane labelling by the [^3 H]-ligand was distinguished from the non-specific membrane labelling by selectively inhibiting the labelling of the receptor site by another substance (unlabelled) known to compete with the [^3 H]-ligand for binding to said receptor site. The remaining non-specific labelling was substracted from all assays concerning said receptor site.
(§4) During the incubation the test compounds were able to compete with the [^3 H]-ligand for binding with the receptor. Subsequently the membranes were harvested and the radioactivity was measured as described above.
(§5) A compound having a high binding affinity is capable of displacing the [^3 H]-ligand from binding to the receptor, and consequently the radioactivity of the harvested membranes will be diminished. […] The values presented in table 1 are IC50 -values, i.e. the molar concentrations at which the test compound was able to inhibit 50% of the [^3 H]-ligand-binding
(§6) In the table "5HT2, 5HT1A, 5HT1B, 5HT1D, 5HT1C, 5HT3 " all refer to different types of serotonin receptor sites; "α2 " refers to the α2 -adrenergic receptor site; "H1 " refers to the histamine-H1 receptor site; and "D2 " refers to the dopamine-D2 -receptor site.

The next assay has as its target T2, 5HT1A serotonin receptor (Homo sapiens, UniProt P08908).
T2 construct: expressed in transfected cells
T2 sequence (P08908 1-422): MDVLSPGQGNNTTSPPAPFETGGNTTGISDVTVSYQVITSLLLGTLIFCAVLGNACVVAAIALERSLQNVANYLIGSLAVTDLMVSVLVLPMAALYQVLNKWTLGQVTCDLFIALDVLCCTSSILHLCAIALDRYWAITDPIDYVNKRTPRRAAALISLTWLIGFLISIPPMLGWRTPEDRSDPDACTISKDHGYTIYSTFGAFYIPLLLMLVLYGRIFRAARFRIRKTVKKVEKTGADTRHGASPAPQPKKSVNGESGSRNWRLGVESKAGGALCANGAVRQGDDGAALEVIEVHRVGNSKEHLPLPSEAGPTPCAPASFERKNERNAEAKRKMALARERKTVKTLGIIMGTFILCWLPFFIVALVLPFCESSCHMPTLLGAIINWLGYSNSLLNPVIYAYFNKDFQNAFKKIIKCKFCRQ
In words: 5HT1A receptor binding, [3H]8OHDPAT displacement. Conditions: read-out: IC50 (inhibition of [3H]-ligand binding) (converted). As to the method:
as §1, §2, §3, §4, §5, §6

The target of the next assay is T3, 5HT1B serotonin receptor (Rattus norvegicus, UniProt P28564).
T3 construct: Cell membrane fractions, prepared from tissue homogenates or cells; from tissue
T3 sequence (P28564 whole entry): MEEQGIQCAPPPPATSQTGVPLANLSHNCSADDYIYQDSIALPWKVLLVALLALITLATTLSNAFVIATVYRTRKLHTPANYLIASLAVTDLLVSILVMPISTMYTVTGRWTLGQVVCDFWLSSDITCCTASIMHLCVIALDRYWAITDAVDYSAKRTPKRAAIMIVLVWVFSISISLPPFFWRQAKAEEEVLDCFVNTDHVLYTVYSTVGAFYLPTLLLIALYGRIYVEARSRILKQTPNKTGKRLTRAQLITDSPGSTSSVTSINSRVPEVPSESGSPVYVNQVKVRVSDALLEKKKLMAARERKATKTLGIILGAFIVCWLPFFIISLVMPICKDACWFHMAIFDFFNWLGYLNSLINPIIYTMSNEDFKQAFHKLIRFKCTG
In words: 5HT1B receptor binding, [3H]serotonin displacement. As to conditions: read-out: IC50 (inhibition of [3H]-ligand binding) (converted). As to the method:
as §1, §2, §3, §4, §5, §6

A further assay deals with T4, 5HT3 serotonin receptor (Mus musculus, UniProt P23979).
T4 construct: Cell membrane fractions, prepared from tissue homogenates or cells; endogenous in cells
T4 sequence (P23979 24-489): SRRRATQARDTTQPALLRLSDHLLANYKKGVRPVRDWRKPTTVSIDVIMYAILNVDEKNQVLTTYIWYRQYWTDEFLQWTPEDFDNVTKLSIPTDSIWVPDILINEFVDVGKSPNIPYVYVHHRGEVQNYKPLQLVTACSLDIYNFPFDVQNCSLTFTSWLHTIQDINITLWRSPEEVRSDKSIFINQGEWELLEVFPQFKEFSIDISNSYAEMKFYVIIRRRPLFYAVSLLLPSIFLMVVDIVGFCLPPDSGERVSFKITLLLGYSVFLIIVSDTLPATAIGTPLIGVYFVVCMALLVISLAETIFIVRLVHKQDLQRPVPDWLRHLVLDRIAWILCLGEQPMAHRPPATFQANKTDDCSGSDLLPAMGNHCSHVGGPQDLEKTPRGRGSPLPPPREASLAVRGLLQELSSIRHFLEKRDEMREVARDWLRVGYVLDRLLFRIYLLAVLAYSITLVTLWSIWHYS
In words: 5HT3 receptor binding, [3H]GR65630 displacement. Conditions: read-out: IC50 (inhibition of [3H]-ligand binding) (converted). As for the experimental part: as §1, §2, §3, §4, §5, §6
(f) Hoyer & Neijt, Eur. J. Pharmacol., 143, 191, 1987;

Another assay concerns the target T5, histamine-H1 receptor (Cavia porcellus, UniProt P31389).
T5 construct: Cell membrane fractions, prepared from tissue homogenates or cells; from tissue
Put plainly: histamine-H1 receptor binding, [3H]pyrilamine displacement. As to conditions: read-out: IC50 (inhibition of [3H]-ligand binding) (converted). As for the experimental part:
as §1, §2, §3, §4, §5, §6
(h) Chang et al., Eur. J. Pharmacol., 48, 463-464, 1978; Laduron et al.,

For another assay, the target named is T6, dopamine-D2 receptor (Rattus norvegicus, UniProt P61169).
T6 construct: Cell membrane fractions, prepared from tissue homogenates or cells; from tissue
T6 sequence (P61169 whole entry): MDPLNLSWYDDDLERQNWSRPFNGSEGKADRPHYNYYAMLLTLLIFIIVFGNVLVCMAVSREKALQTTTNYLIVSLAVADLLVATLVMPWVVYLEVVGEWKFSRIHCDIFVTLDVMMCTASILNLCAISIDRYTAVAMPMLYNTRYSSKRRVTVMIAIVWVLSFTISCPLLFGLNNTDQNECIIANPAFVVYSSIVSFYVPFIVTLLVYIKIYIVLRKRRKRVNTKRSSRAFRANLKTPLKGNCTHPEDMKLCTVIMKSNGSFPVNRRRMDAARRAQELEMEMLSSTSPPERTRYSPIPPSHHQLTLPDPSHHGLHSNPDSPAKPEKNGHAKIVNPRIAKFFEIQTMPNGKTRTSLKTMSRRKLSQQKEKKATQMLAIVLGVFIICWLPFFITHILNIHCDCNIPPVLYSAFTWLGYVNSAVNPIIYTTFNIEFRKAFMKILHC
In words: dopamine-D2 receptor binding, [3H]haloperidol displacement. Conditions: read-out: IC50 (inhibition of [3H]-ligand binding) (converted). As for the experimental part: as §1, §2, §3, §4, §5, §6

Assay [1] has as its system serotonin-induced contraction of caudal artery of the rat. In words: Antagonistic activity on the effect of serotonin on the caudal artery of the rat. Format: cell-based. Conditions: 5 min; rat caudal artery strips; serotonin 40 ng/ml; 5 minutes after adding the drug; read-out: ED50 (minimal concentration which reduces the amplitude of the contractions by at least 50% of its normal value). As to the method: Antagonistic activity on the effect of serotonin on the caudal artery of the rat.
Caudal arteries from the fasted male rats (210-235 g) were used in the test. Two helical strips having a length of 5-6 cm and a width of 2 mm were obtained from each artery and mounted vertically in a 100 ml organ bath containing an oxygenated Krebs-Henseleit solution. Submaximal contractions of the arterial strips were produced by adding single doses of serotonin (40 ng/ml) to the organ bath for 2 minutes with each time an interval of 10 minutes. The amplitude of the contractions was measured before and 5 minutes after adding the drug. After washing out, the agonist was added again three times in order to see whether the contraction was restored and normalized. […] The ED50 -values are the minimal concentrations of the concerned drugs which reduce the amplitude of the contractions by at least 50% of its normal value.

T1 sequence (P14842 whole entry): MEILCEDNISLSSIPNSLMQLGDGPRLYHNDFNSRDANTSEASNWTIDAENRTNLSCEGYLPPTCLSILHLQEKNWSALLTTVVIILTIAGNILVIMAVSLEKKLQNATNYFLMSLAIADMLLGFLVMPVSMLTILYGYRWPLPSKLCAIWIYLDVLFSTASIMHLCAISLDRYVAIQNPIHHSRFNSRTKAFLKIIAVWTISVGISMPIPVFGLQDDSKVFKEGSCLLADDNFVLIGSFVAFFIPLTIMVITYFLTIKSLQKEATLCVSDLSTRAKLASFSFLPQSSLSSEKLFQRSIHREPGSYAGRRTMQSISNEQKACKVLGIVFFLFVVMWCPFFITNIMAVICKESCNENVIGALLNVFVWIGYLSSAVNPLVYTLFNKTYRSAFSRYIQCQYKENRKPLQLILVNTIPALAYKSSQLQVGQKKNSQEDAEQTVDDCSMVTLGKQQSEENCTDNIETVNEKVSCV
T5 sequence (P31389 whole entry): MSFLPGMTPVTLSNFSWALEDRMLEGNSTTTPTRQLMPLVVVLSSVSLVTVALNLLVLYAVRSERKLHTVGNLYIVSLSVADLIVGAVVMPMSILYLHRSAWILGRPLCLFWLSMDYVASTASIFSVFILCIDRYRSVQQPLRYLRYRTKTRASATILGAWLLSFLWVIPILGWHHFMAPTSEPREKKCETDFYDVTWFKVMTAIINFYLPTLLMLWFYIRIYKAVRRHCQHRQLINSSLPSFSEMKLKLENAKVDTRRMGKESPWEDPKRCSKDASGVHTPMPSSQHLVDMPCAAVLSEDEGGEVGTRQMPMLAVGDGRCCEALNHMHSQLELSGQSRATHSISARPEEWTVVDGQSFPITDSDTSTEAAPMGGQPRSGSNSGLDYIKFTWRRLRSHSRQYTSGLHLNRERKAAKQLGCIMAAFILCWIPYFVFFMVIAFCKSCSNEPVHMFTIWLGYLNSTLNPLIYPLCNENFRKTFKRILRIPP

Take `COc1cc(N)ccc1C(=O)NC1(C)CCN(CCCOc2ccc(F)cc2)CC1` [Compound 5, 4-amino-N-[1-[3-(4-fluorophenoxy)propyl]-4-methyl-4-piperidinyl]-2-methoxybenzamide]: the IC50 is 0.178 nM at 5HT2 serotonin receptor; 2240 nM on 5HT1A serotonin receptor; above 10000 nM at 5HT1B serotonin receptor; above 10000 nM at 5HT3 serotonin receptor; 3720 nM at histamine-H1 receptor; 85.1 nM on dopamine-D2 receptor. Further, the IC50 in assay [1] was 0.213 nM.
`COc1cc(N=[N+]=[N-])c(Br)cc1C(=O)NC1(C)CCN(CCCOc2ccc(F)cc2)CC1` [Compound 8, 4-azido-5-bromo-N-[1-[3-(4-fluorophenoxy)propyl]-4-methyl-4-piperidinyl]-2-methoxybenzamide]: the IC50 was 3.55 nM on 5HT2 serotonin receptor; 219 nM on 5HT1A serotonin receptor; 3310 nM at 5HT1B serotonin receptor; 8320 nM at 5HT3 serotonin receptor; 8510 nM on histamine-H1 receptor; 63.1 nM on dopamine-D2 receptor.
Turning to `COc1cc(N)c(Cl)cc1C(=O)NC1(C)CCN(CCCOc2ccc(F)cc2Br)CC1` [Compound 4, 4-amino-N-[1-[3-(2-bromo-4-fluorophenoxy)propyl]-4-methyl-4-piperidinyl]-5-chloro-2-methoxybenzamide], the IC50 is 0.631 nM on 5HT2 serotonin receptor; 417 nM on 5HT1A serotonin receptor; 10000 nM at 5HT1B serotonin receptor; 191 nM on 5HT3 serotonin receptor; 2880 nM at histamine-H1 receptor; 22.9 nM at dopamine-D2 receptor. For the same compound, in assay [1], the IC50 was 0.12 nM.
For the compound `COc1cc(N)c(Cl)cc1C(=O)NC1(C)CCN(CCCOc2ccc(F)cc2)CC1` [Compound 2, 4-amino-5-chloro-N-[1-[3-(4-fluorophenoxy)propyl]-4-methyl-4-piperidinyl]-2-methoxybenzamide], the IC50 on 5HT2 serotonin receptor is 0.251 nM; at 5HT1A serotonin receptor, 661 nM; at 5HT1B serotonin receptor it was 6610 nM; on 5HT3 serotonin receptor, 1700 nM; on histamine-H1 receptor it was 4570 nM; on dopamine-D2 receptor, 29.5 nM. Further, the IC50 in assay [1] was 0.15 nM.
On to `COc1cc(N=[N+]=[N-])c(I)cc1C(=O)NC1(C)CCN(CCCOc2ccc(F)cc2)CC1` [Compound 7, 4-azido-N-[1-[3-(4-fluorophenoxy)propyl]-4-methyl-4-piperidinyl]-5-iodo-2-methoxybenzamude hemihydrate], for which the IC50 on 5HT2 serotonin receptor was 7.41 nM; at 5HT1A serotonin receptor it was 89.1 nM; on 5HT1B serotonin receptor it was 3240 nM; on 5HT3 serotonin receptor, 10000 nM; on histamine-H1 receptor it was 7940 nM; on dopamine-D2 receptor, 66.1 nM.
Turning to `COc1cc(N)c(Br)cc1C(=O)NC1(C)CCN(CCCOc2ccc(F)cc2)CC1` [Compound 3, 4-amino-5-bromo-N-[1-[3-(4-fluorophenoxy)propyl]-4-methyl-4-piperidinyl]-2-methoxybenzamide], the IC50 on 5HT2 serotonin receptor is 0.661 nM; at 5HT1A serotonin receptor it was 407 nM; on 5HT1B serotonin receptor, 6610 nM; on 5HT3 serotonin receptor it was 1440 nM; on histamine-H1 receptor, 10000 nM; on dopamine-D2 receptor, 47.9 nM.
As to `COc1cc(N)c(I)cc1C(=O)NC1(C)CCN(CCCOc2ccc(F)cc2)CC1` [Compound 1, 4-amino-N-[1-[3-(4-fluorophenoxy)propyl]-4-methyl-4-piperidinyl]-5-iodo-2-methoxybenzamide], the IC50 was 0.603 nM on 5HT2 serotonin receptor; 457 nM on 5HT1A serotonin receptor; 8910 nM on 5HT1B serotonin receptor; 4170 nM at 5HT3 serotonin receptor; 6460 nM on histamine-H1 receptor; 27.5 nM at dopamine-D2 receptor. Also, in assay [1], the IC50 was found to be 0.27 nM.
